From patent US6355799B1, “Substituted benzene compounds, process for their preparation, and herbicidal and defoliant compositions containing them” (ISK Americas Incorporated, priority 1997, dated 2002)

What was measured:
Assay type in all cases: in vivo
[1] = tested on: field corn (Zea mays L., var. Dekalb 535, CORN); experiment: Pre-emerge test, crop safety; details: crop damage rating 0-100, 14 days after application
Summary of the method: (§1)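 Visual ratings on a 0-100 scale (0 no damage, 100 all plants dead) were taken at 14 days after treatment. Rates of 15-1000 g ai/ha in acetone, 187 l/ha, were sprayed onto soil one day after planting (pre-emerge) or onto 2-3 leaf plants with 0.25% v/v surfactant (post-emerge).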

[2] = tested on: upland rice (Oryza sp., var. Tebonnet, RICE); experiment: Pre-emerge test, crop safety; details: crop damage rating 0-100, 14 days after application
Summary of the method: as §1

[3] = tested on: field corn (Zea mays L., var. Dekalb 535, CORN); experiment: Post-emerge test, crop safety; details: post-emerge, 14 days after application, rating scale 0-100
Summary of the method: (§2)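 Rating: 0–100 visual injury, 14 DAA. Application: acetone, 187 l/ha, 15–1000 g ai/ha, flat-fan track sprayer with nozzle 40–45 cm above soil or canopy. Post-emerge runs used 0.25% v/v surfactant on 2–3 leaf plants.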

[4] = tested on: upland rice (Oryza sp., var. Tebonnet, RICE); experiment: Post-emerge test, crop safety; details: post-emerge, 14 days after application, rating scale 0-100
Summary of the method: as §2

[5] = tested on: lambsquarters (Chenopodium album, CHEAL); experiment: Post-emerge test, greenhouse herbicide activity screening; details: post-emerge, 14 days after application, rating scale 0-100
Summary of the method: (§3)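 Applied at 15–1000 g ai/ha from acetone in 187 l/ha spray volume. Post-emergence applications included 0.25% v/v non-ionic surfactant and reached plants sown 8–21 days before. Pre-emergence applications were incorporated by surface watering. Efficacy or crop damage was rated on a 0–100 scale after 14 days.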

[6] = tested on: velvetleaf (Abutilon theophrasti, ABUTH); experiment: as above; details: post-emerge, 14 days after application, rating scale 0-100
Summary of the method: as §3

[7] = tested on: ivyleaf morningglory (Ipomoea hederacea, IPOHE); experiment: as above; details: post-emerge, 14 days after application, rating scale 0-100
Summary of the method: as §3

[8] = tested on: redroot pigweed (Amaranthus retroflexus, AMARE); experiment: as above; details: post-emerge, 14 days after application
Summary of the method: as §3

[9] = tested on: green foxtail (Setaria viridis, SETVI); experiment: as above; details: post-emerge, 14 days after application, rating scale 0-100
Summary of the method: as §3

[10] = tested on: barnyardgrass (Echinochloa crus-galli, ECHCG); experiment: as above; details: post-emerge, 14 days after application, rating scale 0-100
Summary of the method: as §3

[11] = tested on: large crabgrass (Digitaria sanguinalis, DIGSA); experiment: as above; details: post-emerge, 14 days after application, rating scale 0-100
Summary of the method: as §3

[12] = tested on: johnsongrass (Sorghum halepense, SORHA); experiment: as above; details: post-emerge, 14 days after application, rating scale 0-100
Summary of the method: as §3

[13] = tested on: sicklepod (Cassia obtusifolia, CASOB); experiment: as above; details: post-emerge, 14 days after application, rating scale 0-100
Summary of the method: as §3

[14] = tested on: lambsquarters (Chenopodium album, CHEAL); experiment: Pre-emerge test, greenhouse herbicide activity screening; details: phytotoxicity rating 0-100, 14 days after application
Summary of the method: (§4)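 Compounds in acetone were track-sprayed at 15–1000 g ai/ha: pre-emergence onto soil sown the previous day, then top-watered to incorporate and later bottom-watered; post-emergence onto 2–3 leaf plants with 0.25% v/v surfactant, bottom-watered only. Ratings on a 0–100 phytotoxicity scale were taken at day 14.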

[15] = tested on: velvetleaf (Abutilon theophrasti, ABUTH); experiment: as above; details: phytotoxicity rating 0-100, 14 days after application
Summary of the method: as §4

[16] = tested on: ivyleaf morningglory (Ipomoea hederacea, IPOHE); experiment: as above; details: phytotoxicity rating 0-100, 14 days after application
Summary of the method: as §4

[17] = tested on: green foxtail (Setaria viridis, SETVI); experiment: as above; details: phytotoxicity rating 0-100, 14 days after application
Summary of the method: as §4

[18] = tested on: barnyardgrass (Echinochloa crus-galli, ECHCG); experiment: as above; details: phytotoxicity rating 0-100, 14 days after application
Summary of the method: as §4

[19] = tested on: large crabgrass (Digitaria sanguinalis, DIGSA); experiment: as above; details: phytotoxicity rating 0-100, 14 days after application
Summary of the method: as §4

[20] = tested on: johnsongrass (Sorghum halepense, SORHA); experiment: as above; details: phytotoxicity rating 0-100, 14 days after application
Summary of the method: as §4

[21] = tested on: sicklepod (Cassia obtusifolia, CASOB); experiment: as above; details: phytotoxicity rating 0-100, 14 days after application
Summary of the method: as §4

[22] = tested on: redroot pigweed (Amaranthus retroflexus, AMARE); experiment: as above; details: phytotoxicity rating 0-100, 14 days after application
Summary of the method: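 Sandy loam pots; pre-emerge: sown 1 d pre-spray, surface-watered after, then bottom-watered. Post-emerge: sown 8–21 d before, 2–3 leaf stage, + 0.25% v/v NIS, bottom-watered. Acetone, 187 l/ha track spray, 15–1000 g ai/ha. 0–100 injury score, day 14.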

COc1c(Cl)cc(F)c(-n2c(=O)cc(C(F)(F)F)n(C)c2=O)c1NC(=O)NCc1ccccc1 [Compound 3-6]
100: phytotoxicity rating ABUTH ([6]; 63 g ai/ha) | phytotoxicity rating ABUTH ([6]; 250 g ai/ha) | phytotoxicity rating IPOHE ([7]; 250 g ai/ha) | phytotoxicity rating AMARE ([8]; 63 g ai/ha, rating scale 0-100 (0 no damage, 100 complete death)) | phytotoxicity rating AMARE ([8]; 250 g ai/ha, rating scale 0-100) | Pre-emerge Herbicidal Activity CHEAL ([14]; 63 g ai/ha) | Pre-emerge Herbicidal Activity CHEAL ([14]; 250 g ai/ha) | Pre-emerge Herbicidal Activity ABUTH ([15]; 63 g ai/ha) | Pre-emerge Herbicidal Activity ABUTH ([15]; 250 g ai/ha) | Pre-emerge Herbicidal Activity IPOHE ([16]; 63 g ai/ha) | Pre-emerge Herbicidal Activity SETVI ([17]; 63 g ai/ha) | Pre-emerge Herbicidal Activity SETVI ([17]; 250 g ai/ha) | Pre-emerge Herbicidal Activity DIGSA ([19]; 250 g ai/ha) | Pre-emerge Herbicidal Activity CASOB ([21]; 63 g ai/ha) | Pre-emerge Herbicidal Activity CASOB ([21]; 250 g ai/ha) | Pre-emerge Herbicidal Activity AMARE ([22]; 250 g ai/ha)
80: Pre-emerge Herbicidal Activity RICE ([2]; 250 g ai/ha) | Pre-emerge Herbicidal Activity ECHCG ([18]; 250 g ai/ha) | Pre-emerge Herbicidal Activity SORHA ([20]; 250 g ai/ha)
70: phytotoxicity rating CORN (crop damage) ([3]; 250 g ai/ha) | phytotoxicity rating RICE (crop damage) ([4]; 250 g ai/ha)
90: Pre-emerge Herbicidal Activity CORN ([1]; 250 g ai/ha) | phytotoxicity rating CHEAL ([5]; 250 g ai/ha) | phytotoxicity rating IPOHE ([7]; 63 g ai/ha) | phytotoxicity rating CASOB ([13]; 250 g ai/ha) | Pre-emerge Herbicidal Activity AMARE ([22]; 63 g ai/ha)
40: phytotoxicity rating SETVI ([9]; 250 g ai/ha) | phytotoxicity rating CASOB ([13]; 63 g ai/ha) | Pre-emerge Herbicidal Activity ECHCG ([18]; 63 g ai/ha)
30: Pre-emerge Herbicidal Activity RICE ([2]; 63 g ai/ha) | phytotoxicity rating RICE (crop damage) ([4]; 63 g ai/ha) | Pre-emerge Herbicidal Activity DIGSA ([19]; 63 g ai/ha) | Pre-emerge Herbicidal Activity SORHA ([20]; 63 g ai/ha)
50: phytotoxicity rating CHEAL ([5]; 63 g ai/ha)
95: Pre-emerge Herbicidal Activity IPOHE ([16]; 250 g ai/ha)
20: phytotoxicity rating CORN (crop damage) ([3]; 63 g ai/ha) | phytotoxicity rating ECHCG ([10]; 250 g ai/ha) | phytotoxicity rating SORHA ([12]; 250 g ai/ha)
10: phytotoxicity rating DIGSA ([11]; 250 g ai/ha)
0: Pre-emerge Herbicidal Activity CORN ([1]; 63 g ai/ha) | phytotoxicity rating SETVI ([9]; 63 g ai/ha) | phytotoxicity rating ECHCG ([10]; 63 g ai/ha) | phytotoxicity rating DIGSA ([11]; 63 g ai/ha) | phytotoxicity rating SORHA ([12]; 63 g ai/ha)
